Reference: ChEMBL document CHEMBL1152289, “Antithyroid drug carbimazole and its analogues: synthesis and inhibition of peroxidase-catalyzed iodination of L-tyrosine” (J Med Chem, 2008)

Target: Lactoperoxidase (Homo sapiens, UniProt P22079)
Assay: Inhibition of lactoperoxidase-catalyzed iodination of L-tyrosine assessed as 3,5-diiodo-L-tyrosine formation by HPLC

Lactoperoxidase, sequence (P22079 whole entry): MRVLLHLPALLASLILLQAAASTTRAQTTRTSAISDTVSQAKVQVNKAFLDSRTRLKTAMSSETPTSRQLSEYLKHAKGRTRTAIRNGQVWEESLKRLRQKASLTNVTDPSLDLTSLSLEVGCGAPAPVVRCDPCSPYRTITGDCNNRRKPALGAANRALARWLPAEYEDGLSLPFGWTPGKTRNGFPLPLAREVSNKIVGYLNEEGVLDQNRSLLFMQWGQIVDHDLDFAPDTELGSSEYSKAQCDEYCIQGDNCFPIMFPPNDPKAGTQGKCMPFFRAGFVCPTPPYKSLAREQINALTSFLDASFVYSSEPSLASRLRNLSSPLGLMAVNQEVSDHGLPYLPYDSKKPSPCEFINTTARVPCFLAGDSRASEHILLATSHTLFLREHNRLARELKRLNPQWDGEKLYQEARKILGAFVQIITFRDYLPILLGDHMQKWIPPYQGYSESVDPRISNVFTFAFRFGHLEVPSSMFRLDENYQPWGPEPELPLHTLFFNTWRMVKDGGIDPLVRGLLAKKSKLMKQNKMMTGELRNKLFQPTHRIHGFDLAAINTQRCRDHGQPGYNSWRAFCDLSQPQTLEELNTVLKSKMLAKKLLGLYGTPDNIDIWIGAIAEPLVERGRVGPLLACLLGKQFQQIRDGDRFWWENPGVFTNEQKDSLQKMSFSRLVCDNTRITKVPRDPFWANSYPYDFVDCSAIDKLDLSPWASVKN

Structure (SMILES) | IC50
CCOC(=O)n1ccn(C)c1=S [CARBIMAZOLE] | 10.4 µM
CCn1ccn(C(=O)OC)c1=[Se] | 25.3 µM
CCn1ccn(C(=O)OC)c1=S | 19.6 µM
COC(=O)n1ccn(C)c1=S | 10.7 µM
CCOC(=O)n1ccn(CC)c1=S | 20.5 µM
CCOC(=O)n1ccn(C)c1=[Se] | 10.1 µM
CCOC(=O)n1ccn(CC)c1=[Se] | 21.3 µM
COC(=O)n1ccn(C)c1=[Se] | 19.7 µM
Cn1cc[nH]c1=S [METHIMAZOLE] | 11.8 µM
